Measured values: patent US8637493B2, “Methods for treating glioblastoma” (University of Massachusetts, priority 2009, dated 2014)

Key:
[1] = tested on: Hes1; assay: RT-PCR / qRT-PCR of Notch target Hes1 mRNA in neurosphere cultures after DAPT; type: cell-based, human; conditions: for decrease of Hes1 mRNA level: 48 hours after treatment, RT-PCR; for Hes1 expression (qRT-PCR): 1 μM DAPT, 48 hours
Method: TMZ concentrations for each culture were selected based on previous experiments (Mihaliak et al., Cancer Letts. 296, 168-177 (2010)) DAPT and LY concentrations were chosen for each culture based on the decrease in Hes1 and Hey1 expression. RNA was isolated from the cultures 48 hours after DAPT treatment, and Hes1 and Hey1 cDNA expression levels were analyzed by PCR or qPCR.
RT-PCR and RT-qPCR were performed as follows. Neurosphere cultures were pelleted and tumor tissues from subcutaneous xenografts were broken into a powder using a BioPulverizer (Biospec Products, Inc., Bartlesville, Okla.). RNA was isolated from neurosphere cultures and frozen tumor samples using TRIzol Reagent (Invitrogen, Carlsbad, Calif.), following the manufacturer's protocol. RNA was treated with DNase I, Amplification Grade (Invitrogen, Carlsbad, Calif.). cDNA was made using the SuperScript II Reverse Transcription (RT) Kit with Oligo(dT)12-18 primers (Invitrogen, Carlsbad, Calif.), followed by a 20 minute incubation at 37° C. with RNaseH. PCR was carried out using Taq DNA Polymerase, following the manufacturer's protocol (Invitrogen, Carlsbad, Calif.). Real time qPCR was carried out using QuantiTect SYBR Green (QIAGEN, Valencia, Calif.). Hes1 and β-Actin primers were developed using Primer3 (Rozen and Skaletsky, Methods Mol Biol 2000; 132: 365-86). Hes1 forward primer: 5″ […] 3″ (SEQ ID NO:1) and reverse primer: 5″ […] 3″ (SEQ ID NO:2). β-Actin (RT-PCR) forward primer: 5″[…] 3″ (SEQ ID NO:3) and reverse primer: 5″ […] 3″ (SEQ ID NO:4). β-Actin (qRT-PCR) forward primer: 5″[…] 3″ (SEQ ID NO:5) and reverse primer: 5″ […] (SEQ ID NO:6). Primers for Hey1 (Osipo et al., Oncogene 2008; 27: 5019-32), Notch1 (Lefort et al., Genes Dev 2007; 21: 562-77), Notch2 (O'Neill et al., Am J Pathol 2007; 171: 1023-36), Notch3 (Buchler et al., Ann Surg 2005; 242: 791-800, discussion −1) and Notch4 (Buchler et al., Ann Surg 2005; 242: 791-800, discussion −1) were previously published, RT-PCR products were analyzed on 2% agarose gels. tantification of band intensity for DAPT treated lines was determined using ImageJ (Rasband W S. ImageJ, U.S. National Institutes of Health, Bethesda, Md., USA. 1997-2004). cDNA levels for qRT-PCR products were calculated using the PFAFFL method (Pfaffl, Nucleic Acids Res 2001; 29: e45).

[2] = tested on: GS7-2-NICD; assay: Neurosphere recovery assay, GS7-2-NICD; type: cell-based, human; conditions: constitutive NICD
Method: (§1) Neurosphere cultures were dissociated to single cell suspensions by pH dissociation followed by filtration through 40 μm screens. For the neurosphere assay, 3,000 cells/ml of defined medium were seeded in 6-well plates. Immediately after plating, cells were treated with DMSO (Research Organics, Cleveland, Ohio) carrier control, TMZ-only, DAPT-only, or TMZ+DAPT. Additional DAPT was added on days 2 and 4. Neurospheres consisting of 10 or more cells were counted under a light microscope on day 7 for the converted cell lines. Primary lines have a slightly longer doubling time and were counted on day 10. After counting the neurospheres from the initial treatment, 2 ml of fresh defined medium was added to each well. DAPT was also added once more to the DAPT-only and TMZ+DAPT samples, and the cells were incubated for an additional 7 or 10 days. Neurospheres from the recovery period were counted on day 14 or day 20. To analyze secondary neurosphere formation, cells were collected, pelleted and dissociated to a single cell suspension by the pH method. Cells from each well were re-seeded into 6-well plates with 2 ml of defined medium. The number of secondary neurospheres formed by converted cell lines and primary cultures were counted on day 21 or day 30, respectively. All recovery assays were repeated with a minimum of 6 replicate sets of time points. […]

[3] = in vivo; cited from earlier work
[4] = tested on: GS7-2-pMIG; assay: Neurosphere recovery assay, empty vector GS7-2-pMIG; type: cell-based, human; conditions: empty vector control
Method: as §1

[5] = tested on: U87NS, U373NS, GS7-2 and GS8-26; assay: Neurosphere recovery assay, initial neurospheres, range over all cultures; type: cell-based, human; conditions: day 7 or 10
Method: (§2) To determine the effects of TMZ plus DAPT neurospheres, cells were plated as previously described (Mihaliak et al., Cancer Letts. 296, 168-177 (2010)). Immediately after plating, cells were treated with DMSO, DAPT-only, LY411,575 (LY)-only TMZ-only, TMZ+DAPT or TMZ+LY. The initial neurospheres were counted on day 7 for the converted cell lines and on day 10 for the slower growing primary lines. Neurosphere recovery was measured on day 14 or 20. The neurospheres were dissociated, re-plated and secondary neurosphere formation was measured on day 21 or 30.
Neurosphere cultures were dissociated to single cell suspensions by pH dissociation followed by filtration through 40 μm screens. For the neurosphere assay, 3,000 cells/ml of defined medium were seeded in 6-well plates. Immediately after plating, cells were treated with DMSO (Research Organics, Cleveland, Ohio) carrier control, TMZ-only, DAPT-only, or TMZ+DAPT. Additional DAPT was added on days 2 and 4. Neurospheres consisting of 10 or more cells were counted under a light microscope on day 7 for the converted cell lines. Primary lines have a slightly longer doubling time and were counted on day 10. […] Neurospheres from the recovery period were counted on day 14 or day 20. […] The number of secondary neurospheres formed by converted cell lines and primary cultures were counted on day 21 or day 30, respectively. […]

[6] = tested on: GS8-26; assay: Neurosphere formation / recovery / secondary neurosphere assay, GS8-26; type: cell-based, human
Method: The effect of chemotherapy on neurosphere formation was assayed in glioma neurosphere cultures. Cultures are treated with a single dose of the agent, e.g., TMZ and multiple doses of a GSI, e.g., DAPT to inhibit the Notch pathway. After the Treatment phase, the number of initial spheres (counted about 7 days after TMZ treatment) represents the number of proliferating CSC/progenitors (FIG. 1 for schematic). Recovery (counted 14 days after TMZ treatment) includes enlargement of the initial spheres and new spheres formed when CSC/progenitor cells quiescent as a result of chemotherapy resume cell proliferation. […] The cells used included U87NS, a neurosphere culture converted to neurosphere growth in defined medium from U87MG (an old Swedish line that is grown in conventional serum conditions); GS7-2, GS8-26 and GS6-22 primary neurosphere cultures that were obtained from grade IV GBM patient tumor samples and AS5-15, which was obtained from a grade III anaplastic astrocytoma.
as §2
Neurosphere cultures were dissociated to single cell suspensions by pH dissociation followed by filtration through 40 μm screens. […] Neurospheres consisting of 10 or more cells were counted under a light microscope on day 7 for the converted cell lines. Primary lines have a slightly longer doubling time and were counted on day 10. […] Neurospheres from the recovery period were counted on day 14 or day 20. […] The number of secondary neurospheres formed by converted cell lines and primary cultures were counted on day 21 or day 30, respectively. […]

[7] = Toxicity by body weight during drug administration
Method: Tolerance of the drug treatments was determined by measuring the weight of the mice during the period of drug administration.
During drug administration, toxicity was determined by weight loss.

SMILES	decrease of Hes1 mRNA level ([1]; U87NS, DAPT 1 μM) [%]	Hes1 expression (qRT-PCR) ([1]; U87NS-NICD)	Hes1 expression (qRT-PCR) ([1]; U87NS-pMIG)	decrease of Hes1 mRNA level ([1]; U373NS, DAPT 5 μM) [%]	recovery: increase in neurospheres [2] [fold]	concentration of TMZ in the cerebral spinal fluid [3]	recovery: increase in neurospheres [4] [fold]	decrease of initial neurosphere formation [5]	recovery: increase in the number of neurospheres ([6]; day 20 relative to day 10, DAPT 5 μM) [fold]	secondary neurosphere formation, TMZ-only treated culture relative to TMZ+DAPT treated culture ([6]; day 30, P<0.001) [fold]	average number of cells per neurosphere capable of self-renewal ([6]; secondary neurospheres divided by recovery neurospheres) [cells per neurosphere]	body weight, initially after TMZ injections [7]	body weight, remainder of treatment / final weight [7]
C[C@H](NC(=O)Cc1cc(F)cc(F)c1)C(=O)N[C@H](C(=O)OC(C)(C)C)c1ccccc1 [DAPT, N-[N-(3,5-difluorophenacetyl)-L-alanyl]-(S)-phenylglycine t-butyl ester]	72	minimal decrease	decreased	76	–	–	–	–	–	–	–	–	–
Cn1nnc2c(C(N)=O)ncn2c1=O [TMZ, temozolomide]	–	–	–	–	2.6	about 5 μM	2.1	80-98%	1.6	25	31	slight weight loss	no significant weight difference
